Measured values from ChEMBL document CHEMBL1201862, “PubChem BioAssay data set” (2004).
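Interpolation was linear, between the two tested concentrations surrounding the appropriate level; five concentrations were tested over 48 hours in 96-well plates. At the GI50, growth is halved.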 Calls of active or inactive are those of the source. Rule as the data show it: active = GI50 up to about 1.1 µM and inactive = higher.

Key:
Assay in all cases: DTP human tumour cell line panel, 48 h
[1] = system: 786-0
[2] = system: OVCAR-5
[3] = system: OVCAR-4
[4] = system: Malme-3M
[5] = system: HL-60
[6] = system: SK-OV-3
[7] = system: M19-MEL
[8] = system: SK-MEL-5
[9] = system: SK-MEL-2
[10] = system: DLD-1
[11] = system: SF-268
[12] = system: COLO 205
[13] = system: LOX IMVI
[14] = system: HCT-15
[15] = system: KM12
[16] = system: A549
[17] = system: ACHN
[18] = system: NCI-H460
[19] = system: UACC-62
[20] = system: CAKI-1
[21] = system: DMS-273
[22] = system: MOLT-4
[23] = system: EKVX
[24] = system: TK-10
[25] = system: HOP-62
[26] = system: IGROV-1
[27] = system: M14
[28] = system: OVCAR-8
[29] = system: HT-29
[30] = system: SW-620
[31] = system: SNB-75
[32] = system: SF-295
[33] = system: HOP-92
[34] = system: RPMI-8226
[35] = system: NCI-H522
[36] = system: A498
[37] = system: HCT-116
[38] = system: XF498
[39] = system: HOP-18
[40] = system: CCRF-CEM
[41] = system: SF-539
[42] = system: NCI-H23
[43] = system: K562
[44] = system: HCC 2998
[45] = system: SK-MEL-28
[46] = system: LXFL 529
[47] = system: SN12C
[48] = system: U-251
[49] = system: OVCAR-3
[50] = system: DMS-114

O=C(O)CCN(CCCCN(CCC(=O)O)CCC(=O)O)CCC(=O)O
GI50 [1]: > 100 µM (inactive)
GI50 [2]: > 100 µM (inactive)
GI50 [3]: > 100 µM (inactive)
GI50 [4]: > 100 µM (inactive)
GI50 [5]: > 100 µM (inactive)
GI50 [6]: > 100 µM (inactive)
GI50 [7]: > 100 µM (inactive)
GI50 [8]: > 100 µM (inactive)
GI50 [9]: > 100 µM (inactive)
GI50 [10]: > 100 µM (inactive)
GI50 [11]: > 100 µM (inactive)
GI50 [12]: > 100 µM (inactive)
GI50 [13]: > 100 µM (inactive)
GI50 [14]: > 100 µM
GI50 [15]: > 100 µM (inactive)
GI50 [16]: > 100 µM (inactive)
GI50 [17]: > 100 µM (inactive)
GI50 [18]: > 100 µM (inactive)
GI50 [19]: > 100 µM (inactive)
GI50 [20]: > 100 µM (inactive)
GI50 [21]: > 100 µM (inactive)
GI50 [22]: > 100 µM (inactive)
GI50 [23]: > 100 µM (inactive)
GI50 [24]: > 100 µM (inactive)
GI50 [25]: > 100 µM (inactive)
GI50 [26]: > 100 µM (inactive)
GI50 [27]: > 100 µM (inactive)
GI50 [28]: > 100 µM (inactive)
GI50 [29]: > 100 µM (inactive)
GI50 [30]: > 100 µM (inactive)
GI50 [31]: > 100 µM (inactive)
GI50 [32]: > 100 µM (inactive)
GI50 [33]: > 100 µM (inactive)
GI50 [34]: > 100 µM (inactive)
GI50 [35]: > 100 µM (inactive)
GI50 [36]: > 100 µM (inactive)
GI50 [37]: > 100 µM (inactive)
GI50 [38]: > 100 µM (inactive)
GI50 [39]: > 100 µM (inactive)
GI50 [40]: > 100 µM (inactive)
GI50 [41]: > 100 µM (inactive)
GI50 [42]: > 100 µM (inactive)
GI50 [43]: > 100 µM (inactive)
GI50 [44]: > 100 µM (inactive)
GI50 [45]: > 100 µM (inactive)
GI50 [46]: > 100 µM (inactive)
GI50 [47]: > 100 µM (inactive)
GI50 [48]: > 100 µM (inactive)
GI50 [49]: > 100 µM (inactive)
GI50 [50]: > 100 µM (inactive)
